The source made the active and inactive calls.
Experiments:
[1] = biological target: T1, RNA-editing ligase 1, mitochondrial (Trypanosoma brucei brucei, UniProt P86926); assay: TbREL1 ligase inhibitors, dose response, biochemical, fluorescence, Trypanosoma brucei (AID 1117295); type: functional
T1 sequence (P86926 whole entry): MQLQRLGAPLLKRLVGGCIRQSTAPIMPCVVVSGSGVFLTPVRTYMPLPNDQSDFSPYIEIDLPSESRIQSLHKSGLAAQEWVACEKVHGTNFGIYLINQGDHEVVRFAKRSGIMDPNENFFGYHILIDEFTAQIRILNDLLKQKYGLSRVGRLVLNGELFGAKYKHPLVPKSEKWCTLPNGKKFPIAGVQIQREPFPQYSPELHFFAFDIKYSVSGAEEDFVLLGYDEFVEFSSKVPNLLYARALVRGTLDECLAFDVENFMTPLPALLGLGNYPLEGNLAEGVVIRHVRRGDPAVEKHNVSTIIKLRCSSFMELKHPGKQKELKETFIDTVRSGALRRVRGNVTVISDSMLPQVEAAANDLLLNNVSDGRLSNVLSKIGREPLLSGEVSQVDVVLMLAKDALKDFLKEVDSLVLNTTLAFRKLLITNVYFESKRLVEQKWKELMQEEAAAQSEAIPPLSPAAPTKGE

[2] = NIH-3T3 fibroblast cytotoxicity, dose response, cytotoxicity control, cell-based, fluorescence, Alamar Blue, secondary assay (AID 2327); type: functional;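 also: NIH-3T3 mouse fibroblasts cultured with fluconazole at 8 µg/mL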
[3] = C. albicans growth with fluconazole, confirmation, fluorescence, retest (AID 2467); type: functional, cell-based
fMet-Leu-Phe receptor = biological target: T2, fMet-Leu-Phe receptor (Homo sapiens, UniProt P21462); assay: FPR ligands, dose response (AID 519); type: functional
T2 sequence (P21462 whole entry): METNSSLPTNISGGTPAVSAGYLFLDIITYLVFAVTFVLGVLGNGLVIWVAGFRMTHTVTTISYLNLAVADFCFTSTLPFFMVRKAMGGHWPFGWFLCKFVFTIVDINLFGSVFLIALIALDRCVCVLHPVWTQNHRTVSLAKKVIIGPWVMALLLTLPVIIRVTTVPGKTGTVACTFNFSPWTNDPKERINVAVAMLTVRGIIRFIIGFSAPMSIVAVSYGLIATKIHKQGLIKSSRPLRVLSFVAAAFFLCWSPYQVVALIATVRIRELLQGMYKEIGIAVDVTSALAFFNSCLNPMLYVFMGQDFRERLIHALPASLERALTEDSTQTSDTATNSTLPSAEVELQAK

[4] = biological target: T3, Fructose-bisphosphate aldolase (Mycobacterium tuberculosis, UniProt P9WQA3); assay: Fluorescence-based biochemical high throughput dose response assay for inhibitors of the fructose-bisphosphate aldolase (FBA) of M. tuberculosis.; type: functional
T3 sequence (P9WQA3 whole entry): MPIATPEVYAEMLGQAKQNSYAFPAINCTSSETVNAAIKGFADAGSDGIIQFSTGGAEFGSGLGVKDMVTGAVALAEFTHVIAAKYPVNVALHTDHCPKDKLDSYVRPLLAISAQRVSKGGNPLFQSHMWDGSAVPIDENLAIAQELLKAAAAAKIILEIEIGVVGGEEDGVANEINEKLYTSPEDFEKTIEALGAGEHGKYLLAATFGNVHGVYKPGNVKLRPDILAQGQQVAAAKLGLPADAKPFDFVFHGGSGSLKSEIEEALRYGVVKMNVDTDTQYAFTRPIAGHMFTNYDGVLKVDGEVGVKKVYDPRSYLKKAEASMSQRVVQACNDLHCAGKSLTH

[5] = P. falciparum Dd2 growth inhibitors, dose response, SYBR Green, cherry-picked samples (AID 1159567); type: functional, cell-based
[6] = HepG2 cell cytotoxicity, dose response, cytotoxicity control, cherry-picked samples (AID 1159577); type: functional, cell-based
[7] = ZM109 Env clade C HIV-1 fusion inhibitors, dose response, HeLa effector, CEM target cells, luciferase, cherry-pick (AID 652058); type: functional, cell-based
[8] = inhibitors of clade B AD8 Env fusion, dose response, cell-based, cherry-pick (AID 652062); type: functional;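 also: luciferase signal from cell-cell fusion driven by HIV-1 clade B AD8 Env; potency is for inhibitors of fusion seen as a drop in luminescence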
[9] = inhibitors of HIV Env-driven cell fusion, dose response, cherry-pick (AID 652057); type: functional, cell-based
[10] = CEM21 lymphoblast cell cytotoxicity, dose response, cytotoxicity control for viral fusion inhibitor project, CellTiter-Glo luminescence, cherry-picked (AID 652042); type: functional, cell-based;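 also: potency for signal decrease meaning cytotoxicity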
[11] = Artemis endonuclease inhibitor potency, dose response, biochemical, fluorescence intensity (AID 720701); type: functional;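 also: Artemis endonuclease enzyme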
[12] = Jurkat T cell cytotoxicity, dose response, cytotoxicity control for P. falciparum gametocyte viability project, luminescence (AID 1117277); type: functional, cell-based;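 also: potency reflects loss of cellular ATP meaning fewer viable cells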
[13] = P. falciparum late gametocyte killing, dose response, luminescence (AID 1117278); type: functional, cell-based;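 also: gametocytes exposed to compound for 24 hours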
[14] = IGROV1 ovarian cancer cell cytotoxicity, dose response, PAX8 inhibitor project, plate reader, dry powder samples (AID 743043); type: functional, cell-based; settings: IGROV-1
Paired box protein Pax-8 = Paired box protein Pax-8 (Homo sapiens, UniProt Q06710); assay: inhibitors of PAX8-driven TPO luciferase reporter, dose response, RMG-I cells, cherry-pick (AID 687027); type: functional, cell-based;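 also: luciferase reporter driven by Pax8 target thyroperoxidase promoter measured by SteadyGlo luminescence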
[15] = NIH:OVCAR-3 ovarian cancer cell cytotoxicity, dose response, PAX8 inhibitor project, plate reader, dry powder samples (AID 743044); type: functional, cell-based
[16] = IOSE-T80 ovarian epithelial cell cytotoxicity, dose response, cytotoxicity control for PAX8 inhibitor project, plate reader, dry powder samples (AID 743045); type: functional, cell-based
[17] = MC4R antagonists, dose response, counter-screen for LGR2 antagonist project, cell-based, plate reader, cherry pick (AID 743444); type: functional;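 also: transfected HEK 293 cells stimulated with alpha-MSH peptide; potency of inhibitors of the alpha-MSH evoked signal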
[18] = HepG2 cell cytotoxicity, dose response, cytotoxicity control, plate reader, cherry-pick, antagonist series (AID 743416); type: functional, cell-based
[19] = HEK293 cell cytotoxicity, dose response, cytotoxicity control, plate reader, cherry-picked samples (AID 743446); type: functional, cell-based
[20] = LGR2 antagonists, dose response, cell-based, HEK293, CRE-luciferase reporter, cherry pick, set 2 (AID 743343); type: functional;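 also: transfected cells were stimulated with diluted bursicon conditioned medium after compound addition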
[21] = A549 cell cytotoxicity, dose response, cytotoxicity control, plate reader, cherry-pick, antagonist series (AID 743412); type: functional, cell-based
Protein Tat = biological target: T4, Protein Tat (Human immunodeficiency virus type 1 group M subtype B (isolate HXB2)(HIV-1), UniProt P04608); type: functional;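 also: tat binding to TAR RNA read out by fluorescence polarization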
T4 sequence (P04608 whole entry): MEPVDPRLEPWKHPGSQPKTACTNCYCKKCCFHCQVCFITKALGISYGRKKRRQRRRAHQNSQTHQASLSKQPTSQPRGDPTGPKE

Chain of Paired box protein Pax-8 (Q06710 whole entry): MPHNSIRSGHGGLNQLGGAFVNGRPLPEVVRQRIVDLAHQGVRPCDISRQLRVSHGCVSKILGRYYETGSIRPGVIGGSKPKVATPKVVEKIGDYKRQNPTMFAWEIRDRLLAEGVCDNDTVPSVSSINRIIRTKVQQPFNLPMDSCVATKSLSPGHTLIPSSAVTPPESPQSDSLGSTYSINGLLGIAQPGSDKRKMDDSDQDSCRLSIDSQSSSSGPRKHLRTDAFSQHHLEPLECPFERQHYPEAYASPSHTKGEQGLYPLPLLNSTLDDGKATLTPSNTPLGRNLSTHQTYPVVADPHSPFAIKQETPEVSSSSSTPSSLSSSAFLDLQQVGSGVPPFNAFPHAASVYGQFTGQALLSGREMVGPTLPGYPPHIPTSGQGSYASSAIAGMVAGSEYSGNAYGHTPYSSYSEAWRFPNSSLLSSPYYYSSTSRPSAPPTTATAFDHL

Question: Which IC50 [1] does the source give for `COC(=O)C1=C(C)N(Cc2ccc(C(F)(F)F)cc2)C(NCc2ccccc2C(F)(F)F)=NC1c1ccccc1C(F)(F)F` (centres undefined) here?
Answer: > 96.6 µM (inactive)

Question: With `COCCN1C(=O)C(O)=C(C(=O)c2ccco2)C1c1cccc(Oc2ccccc2)c1` (centres undefined) as the compound, how does the EC50 [2] read?
Answer: > 150 µM (inactive)

Question: And the EC50 [3]?
Answer: 4.35 µM (active)

Question: What about the Ki (fMet-Leu-Phe receptor) of the same compound?
Answer: 56 µM (inactive)

Question: With `Nc1ncc2c(n1)-c1ccccc1CC2` as the compound, how does the IC50 [4] read?
Answer: 1.53 µM (active)

Question: What does the source list for `CN(C)CC(=O)N1C[C@@H]2N[C@H](C1)[C@H]2c1ccc(/C=C/c2ccccc2)cc1`?
Answer: AC50 [5]: 2.63 µM (active); AC50 [6]: 11.4 µM (active)

Question: What does the source list for `COc1cccc(S(=O)(=O)N(C)C[C@H]2Oc3cc(C4=CCCC4)ccc3S(=O)(=O)N([C@@H](C)CO)C[C@H]2C)c1`?
Answer: AC50 [7]: 1.62 µM (active); AC50 [8]: 3.01 µM (active); AC50 [9]: 1.87 µM (active); AC50 [10]: 64.2 µM (active)

Question: Which IC50 [11] does the source give for `O=[N+]([O-])c1ccccc1/C=C/C=N/n1c(S)nnc1-c1ccc(Cl)cc1` here?
Answer: > 20 µM (inactive)

Question: With `CC(=O)N1CCN(C(=O)c2cc(-c3ccc(Cl)s3)nc3ccccc23)CC1` as the compound, how does the IC50 [4] read?
Answer: 1.17 µM (active)

Question: Which IC50 [12] does the source give for `COc1ccc(-c2nc(C[S+]([O-])CC(=O)NCCCN3CC(C)CC(C)C3)c(C)o2)cc1OC` (centres undefined) here?
Answer: > 83.3 µM (inactive)

Question: What about the IC50 [13] of the same compound?
Answer: > 109 µM (inactive)

Question: Which AC50 [14] does the source give for `O=C(Nc1ccc(F)cc1)N1CCCCN2[C@@H](CO)[C@@H](c3ccc(C#Cc4ccccc4)cc3)[C@@H]2C1` here?
Answer: 21 µM (active)

Question: What about the AC50 (Paired box protein Pax-8) of the same compound?
Answer: 18.7 µM (active)

Question: What about the AC50 [15] of the same compound?
Answer: 19.2 µM (active)

Question: And the AC50 [5]?
Answer: 2.61 µM (active)

Question: What about the AC50 [6] of the same compound?
Answer: 7.97 µM (active)

Question: What about the AC50 [16] of the same compound?
Answer: 55.1 µM (active)

Question: For `COCC(=O)N1CCC2(CC1)CN(Cc1ccccc1F)[C@H](CO)c1[nH]c3cc(OC)ccc3c12`, which AC50 [5] is on record?
Answer: 7.02 µM (active)

Question: What about the AC50 [6] of the same compound?
Answer: > 39 µM (inactive)

Question: Which results are given for `COc1ccc(-n2ncc3c(N4CCC(C)CC4)ncnc32)cc1`?
Answer: AC50 [17]: 19.3 µM (active); AC50 [18]: > 52 µM (inactive); AC50 [19]: > 52 µM (inactive); AC50 [20]: 11.6 µM (active)

Question: Which results are given for `Cn1nnnc1Sc1ncnc2scc(-c3ccc([N+](=O)[O-])cc3)c12`?
Answer: AC50 [17]: 5.32 µM (active); AC50 [18]: 7.05 µM (active); AC50 (Paired box protein Pax-8): 2.57 µM (active); AC50 [21]: 6.71 µM (active); AC50 [19]: 6.48 µM (active); AC50 [20]: 6.25 µM (active)

Question: For `CCC(=O)Nc1cc(C)c(NC(=O)C23CC4CC(CC(C4)C2)C3)cn1`, which IC50 (Protein Tat) is on record?
Answer: > 100 µM (active)

Source: ChEMBL document CHEMBL1201862, “PubChem BioAssay data set” (2004)
